Test results from publication PMC6888004 (International Journal of Molecular Sciences, 2019).

What was measured:
[1] = test system: EBC-1 cells; test: Cellular uptake in EBC-1 cells by flow cytometry; type: cell-based; settings: 0.1, 1, 10 µM; 2, 6, 24, 72 h
Experimental: 2 × 10^4 EBC-1 cells per well were seeded onto 24 well plates (VWR) and allowed to adhere for 48 h. Cells were treated with [D-Lys^6(FITC)]–GnRH-I in complemented EMEM (Lonza) at 0.1, 1, and 10 µM, and incubated in a humidified, 5% CO2 atmosphere incubator for 2, 6, 24, and 72 h at 37 °C.
After incubation, supernatant was discarded and the cells were washed twice with PBS (Lonza). Trypsin (Thermo Fisher Scientific, cat. no.: 25300062) was added for 10 min at 37 °C. Cells were pelleted (250× g, 4 min, 4 °C) in flow cytometry tubes, resuspended in 300 µL PBS and kept at 4 °C for the rest of the experiment. The fluorescence intensity of the conjugate-stained cells was analysed using a FACS Calibur flow cytometer (BD Biosciences, San Jose, CA) using channel FL1. Data were evaluated by CellQuest Pro software (BD Biosciences). The relative median fluorescent intensity (MFI) values (based on DMSO control) were calculated.
Calculation formula: relative MFI compound;xh;yµM=MFI compound;xh;yµM/MFI DMSO control;xh • x time (h) • y concentration (µM)

[2] = test system: EBC-1 cells; test: Colocalization with lysosomes in EBC-1 cells by confocal microscopy; type: cell-based; settings: 10 µM, 24 h
Experimental: EBC-1 cells were seeded in eight well Ibidi® μ-Slide microscopic slides (2 × 10^4 cells/well) and allowed to adhere for 48 h. Cells were then treated with 10 µM [D-Lys^6(FITC)]–GnRH-I in complemented EMEM (Lonza) and incubated in a humidified, 5% CO2 atmosphere incubator for 24 h at 37 °C.
To investigate colocalization of [D-Lys^6(FITC)]–GnRH-I with lysosomes (in Figure 6), after [D-Lys^6(FITC)]–GnRH-I treatment (24 h, 10 µM), Lysoview 633 dye was added to the treating medium and the cells were incubated for a further 1 h. After incubation, cells were washed twice with EMEM. Images of the living cells were acquired with a Zeiss Confocal LSM 710 microscope [Objective: Plan-Apochromat 63×/1.40 Oil DIC M27. Pinhole: 1.95 AU. Laser wavelength: 488 nm and 633 nm. Detection wavelength: 496–573 nm; 633–693 nm)].

[3] = test system: endometrial cancer; set-up: method as in https://clinicaltrials.gov; settings: phase III, ref https://clinicaltrials.gov; cited from earlier work
[4] = set-up: method as in PMID 10639165; settings: cited from earlier work

Molecule | cellular uptake [1] | colocalization with lysosome marker Lysoview 633 [2] | clinical outcome compared to doxorubicin [3] | half-life in human serum [4]
CC(C)C[C@H](NC(=O)[C@@H](CCCCNC(=S)Nc1ccc2c(c1)C(=O)OC21c2ccc(O)cc2Oc2cc(O)ccc21)NC(=O)[C@H](Cc1ccc(O)cc1)NC(=O)[C@H](CO)NC(=O)[C@H](Cc1c[nH]c2ccccc12)NC(=O)[C@H](Cc1c[nH]cn1)NC(=O)[C@@H]1CCC(=O)N1)C(=O)N[C@@H](CCCNC(=N)N)C(=O)N1CCC[C@H]1C(=O)NCC(N)=O [[D-Lys^6(FITC)]–GnRH-I] | concentration-dependent dynamic uptake | highly correlated |  | 
zoptarelin doxorubicin |  |  | could neither extend overall survival, nor improve the safety profile | approximately 2 h
